The values below come from patent US6608086B2, “Dihydropyridines and new uses thereof” (Synaptic Pharmaceutical Corporation, priority 1993, dated 2003).

The target of data set [1] is T1, L-type calcium channel (Rattus norvegicus, UniProt P22002).
T1 construct: membrane fragments of rat cardiac muscle; from tissue; host or cells: rat cardiac muscle membranes
The data set is described as follows: Competition binding of [3H]nitrendipine to membrane fragments of rat cardiac muscle. How it is done:
The protocols for these experiments are given below.
Determination of the Activity of al Antagonists at Calcium Channels
Briefly, the tissue was minced and homogenized in 50 mM Tris-HCl (pH 7.4) containing 0.1 mM phenylmethylsulfonyl fluoride. The homogenates were centrifuged at 1000 g for 15 minutes, the resulting supernatant was centrifuged at 45,000 g for 15 minutes. The 45,000 g pellet was suspended in buffer and centrifuged a second time. Aliquots of membrane protein were incubated for 30 minutes at 37° C. in the presence of [3H]nitrendipine (1 nM), and nonspecific binding was determined in the presence of 10 μM nifedipine. The bound radioligand was separated by filtration through GF/B filters using a cell harvester.

In data set [2] the target is T2, α1A Human Adrenergic Receptor (Homo sapiens, UniProt P25100).
T2 construct: The entire coding region of α1A (1719 bp); expressed in transfected cells
T2 sequence (P25100 1-572): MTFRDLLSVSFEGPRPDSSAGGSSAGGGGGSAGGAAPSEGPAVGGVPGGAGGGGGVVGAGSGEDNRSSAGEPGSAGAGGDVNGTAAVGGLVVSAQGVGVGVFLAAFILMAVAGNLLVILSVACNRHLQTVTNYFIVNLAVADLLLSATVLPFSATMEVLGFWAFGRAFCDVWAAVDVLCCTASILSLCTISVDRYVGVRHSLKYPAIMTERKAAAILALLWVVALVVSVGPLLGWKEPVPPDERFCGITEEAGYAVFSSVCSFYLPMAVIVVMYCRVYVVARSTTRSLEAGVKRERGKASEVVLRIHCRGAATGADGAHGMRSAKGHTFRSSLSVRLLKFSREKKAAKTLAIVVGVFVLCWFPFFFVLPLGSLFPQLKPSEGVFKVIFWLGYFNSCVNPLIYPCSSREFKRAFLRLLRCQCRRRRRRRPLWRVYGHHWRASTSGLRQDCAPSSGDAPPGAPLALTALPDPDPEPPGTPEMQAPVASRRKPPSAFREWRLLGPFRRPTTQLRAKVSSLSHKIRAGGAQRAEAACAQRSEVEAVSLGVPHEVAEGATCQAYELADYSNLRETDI
The data set is described as follows: Radioligand binding, [3H]prazosin, cloned human α1A adrenergic receptor. The essentials: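 Transfected LM(tk−) cells are lysed by sonication and membranes collected at 30,000× g. Membranes then bind 0.5 nM [3H]prazosin for 20 min at 37° C, and the reaction is stopped by filtration over GF/B filters, with 10 μM phentolamine giving nonspecific binding.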

Data set [3] concerns the target T3, α1C Human Adrenergic Receptor (Homo sapiens, UniProt P35348).
T3 construct: The entire coding region of α1C (1401 bp); expressed in transfected cells
T3 sequence (P35348 1-466): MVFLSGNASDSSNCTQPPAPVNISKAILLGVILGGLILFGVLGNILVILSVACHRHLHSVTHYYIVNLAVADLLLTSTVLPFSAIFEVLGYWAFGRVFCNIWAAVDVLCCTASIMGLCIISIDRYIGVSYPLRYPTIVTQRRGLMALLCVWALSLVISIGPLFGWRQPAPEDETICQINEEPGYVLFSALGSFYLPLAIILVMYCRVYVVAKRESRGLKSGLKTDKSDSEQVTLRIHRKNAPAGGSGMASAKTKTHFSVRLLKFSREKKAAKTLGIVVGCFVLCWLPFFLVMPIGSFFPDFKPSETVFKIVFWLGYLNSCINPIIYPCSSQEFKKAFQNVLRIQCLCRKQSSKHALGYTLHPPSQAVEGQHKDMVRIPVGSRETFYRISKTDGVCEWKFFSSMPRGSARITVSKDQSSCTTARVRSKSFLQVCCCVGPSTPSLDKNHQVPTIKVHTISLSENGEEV
The data set is described as follows: Radioligand binding, [3H]prazosin, cloned human α1C adrenergic receptor. An outline of the steps:
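Membranes from LM(tk−) cells stably expressing the cloned human α1C receptor were incubated with 0.5 nM [3H]prazosin at 37° C. for 20 min in 50 mM Tris-HCl, 1 mM MgCl2, 0.1% ascorbic acid, pH 7.5. Nonspecific binding was defined with 10 μM phentolamine, and bound ligand was separated by GF/B filtration.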

Data set [4] deals with T4, α1B Human Adrenergic Receptor (Homo sapiens, UniProt P35368).
T4 construct: The entire coding region of α1B (1563 bp); expressed in transfected cells
T4 sequence (P35368 1-520): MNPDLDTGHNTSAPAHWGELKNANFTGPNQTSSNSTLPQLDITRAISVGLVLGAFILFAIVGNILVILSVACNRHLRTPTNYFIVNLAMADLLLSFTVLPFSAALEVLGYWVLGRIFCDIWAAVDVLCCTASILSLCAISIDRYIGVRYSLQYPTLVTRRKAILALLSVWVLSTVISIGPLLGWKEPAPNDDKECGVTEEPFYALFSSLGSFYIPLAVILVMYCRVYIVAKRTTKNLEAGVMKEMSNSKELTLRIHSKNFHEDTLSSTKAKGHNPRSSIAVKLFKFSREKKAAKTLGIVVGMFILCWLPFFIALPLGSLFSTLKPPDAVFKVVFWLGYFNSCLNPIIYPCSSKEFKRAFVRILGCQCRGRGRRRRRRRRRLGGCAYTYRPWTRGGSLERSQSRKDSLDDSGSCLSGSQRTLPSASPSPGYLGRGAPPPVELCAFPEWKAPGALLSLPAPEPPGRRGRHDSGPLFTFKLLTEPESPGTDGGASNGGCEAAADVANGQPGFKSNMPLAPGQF
The data set is described as follows: Radioligand binding, [3H]prazosin, cloned human α1B adrenergic receptor. The essentials: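 Membranes from stably transfected LM(tk−) cells, resuspended in 50 mM Tris-HCl, 1 mM MgCl2, 0.1% ascorbic acid, pH 7.5, were incubated with 0.5 nM [3H]prazosin for 20 min at 37° C. Nonspecific binding defined with 10 μM phentolamine; bound ligand separated by GF/B filtration.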

Where [5] appears, read: [3H]nitrendipine, rat cardiac muscle membranes, mean, read-out: PKi Ca (converted).
The mark [6] stands for this setting: PKi alpha-1 1a, [3H]prazosin, cloned human receptor, LM(tk-) cell membranes, mean.
[7] abbreviates: PKi alpha-1 1c, cloned human receptor, LM(tk-) cell membranes, mean.
The mark [8] stands for this setting: PKi alpha-1 1b, cloned human receptor, LM(tk-) cell membranes, mean.
[9] abbreviates: cloned human receptor, LM(tk-) cell membranes, mean, read-out: PKi alpha-1 1c (converted).
Setting [10] is: cloned human receptor, LM(tk-) cell membranes, mean, read-out: PKi alpha-1 1b (converted).

In general, melting point refers to the temperature, or range, at which the solid turns liquid.

Like-named read-outs stand apart in the source and are kept apart here.

T1 sequence (P22002 whole entry, other chains not shown, the tested form may be a part): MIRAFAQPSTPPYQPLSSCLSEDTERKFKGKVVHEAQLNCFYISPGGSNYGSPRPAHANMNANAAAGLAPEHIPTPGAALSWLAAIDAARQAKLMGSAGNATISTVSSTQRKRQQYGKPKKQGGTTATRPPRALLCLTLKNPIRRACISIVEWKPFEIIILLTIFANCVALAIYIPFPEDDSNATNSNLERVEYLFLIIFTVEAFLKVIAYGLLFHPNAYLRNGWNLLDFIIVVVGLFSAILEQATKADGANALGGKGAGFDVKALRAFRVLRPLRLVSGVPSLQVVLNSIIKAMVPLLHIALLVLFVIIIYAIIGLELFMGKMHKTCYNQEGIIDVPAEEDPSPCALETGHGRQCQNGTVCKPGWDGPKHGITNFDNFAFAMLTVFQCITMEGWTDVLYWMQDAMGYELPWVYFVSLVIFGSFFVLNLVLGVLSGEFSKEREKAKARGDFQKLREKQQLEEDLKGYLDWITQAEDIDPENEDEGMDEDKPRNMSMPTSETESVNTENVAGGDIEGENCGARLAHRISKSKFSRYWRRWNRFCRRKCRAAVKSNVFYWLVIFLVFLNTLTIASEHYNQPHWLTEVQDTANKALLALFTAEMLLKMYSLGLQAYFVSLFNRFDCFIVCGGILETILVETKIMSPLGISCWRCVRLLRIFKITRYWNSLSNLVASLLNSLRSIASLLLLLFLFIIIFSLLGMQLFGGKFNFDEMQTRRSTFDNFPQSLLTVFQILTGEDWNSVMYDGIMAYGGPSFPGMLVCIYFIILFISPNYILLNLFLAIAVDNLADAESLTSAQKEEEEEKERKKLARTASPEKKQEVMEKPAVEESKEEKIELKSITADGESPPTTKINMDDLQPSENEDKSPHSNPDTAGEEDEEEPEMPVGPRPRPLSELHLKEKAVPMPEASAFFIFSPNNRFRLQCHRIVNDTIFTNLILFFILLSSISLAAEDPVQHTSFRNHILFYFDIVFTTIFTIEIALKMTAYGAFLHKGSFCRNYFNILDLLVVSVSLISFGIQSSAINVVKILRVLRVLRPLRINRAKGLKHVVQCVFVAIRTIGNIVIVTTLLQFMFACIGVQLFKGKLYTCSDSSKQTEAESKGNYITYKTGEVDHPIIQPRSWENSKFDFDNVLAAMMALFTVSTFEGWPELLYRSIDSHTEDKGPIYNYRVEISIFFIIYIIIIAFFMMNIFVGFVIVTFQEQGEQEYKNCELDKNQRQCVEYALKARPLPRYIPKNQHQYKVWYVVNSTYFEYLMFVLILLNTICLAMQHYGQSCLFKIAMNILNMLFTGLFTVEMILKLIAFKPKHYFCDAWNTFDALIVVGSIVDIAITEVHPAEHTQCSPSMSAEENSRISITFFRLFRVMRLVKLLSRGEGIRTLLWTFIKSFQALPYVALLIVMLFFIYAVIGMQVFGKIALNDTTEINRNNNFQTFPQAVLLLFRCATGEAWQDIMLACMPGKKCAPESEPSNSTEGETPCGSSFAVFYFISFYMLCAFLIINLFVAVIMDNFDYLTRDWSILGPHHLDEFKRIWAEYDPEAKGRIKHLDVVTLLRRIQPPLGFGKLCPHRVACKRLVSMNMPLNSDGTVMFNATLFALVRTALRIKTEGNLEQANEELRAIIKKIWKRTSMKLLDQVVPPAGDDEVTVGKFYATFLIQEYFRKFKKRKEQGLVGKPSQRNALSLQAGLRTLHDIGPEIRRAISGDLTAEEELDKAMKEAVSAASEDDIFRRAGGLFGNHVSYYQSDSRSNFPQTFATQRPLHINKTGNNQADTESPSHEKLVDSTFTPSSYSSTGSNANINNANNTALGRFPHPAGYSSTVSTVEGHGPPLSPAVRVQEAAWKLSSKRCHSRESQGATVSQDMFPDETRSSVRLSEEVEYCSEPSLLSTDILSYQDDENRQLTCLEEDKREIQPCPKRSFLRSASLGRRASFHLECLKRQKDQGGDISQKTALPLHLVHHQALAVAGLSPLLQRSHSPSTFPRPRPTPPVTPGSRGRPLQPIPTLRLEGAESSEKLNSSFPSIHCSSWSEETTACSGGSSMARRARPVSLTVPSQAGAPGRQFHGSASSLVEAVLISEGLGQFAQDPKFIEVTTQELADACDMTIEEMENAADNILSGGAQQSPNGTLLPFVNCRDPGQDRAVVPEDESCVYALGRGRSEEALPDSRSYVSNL
T1 sequence (P54290 25-944 partner limits assumed, other chains not shown): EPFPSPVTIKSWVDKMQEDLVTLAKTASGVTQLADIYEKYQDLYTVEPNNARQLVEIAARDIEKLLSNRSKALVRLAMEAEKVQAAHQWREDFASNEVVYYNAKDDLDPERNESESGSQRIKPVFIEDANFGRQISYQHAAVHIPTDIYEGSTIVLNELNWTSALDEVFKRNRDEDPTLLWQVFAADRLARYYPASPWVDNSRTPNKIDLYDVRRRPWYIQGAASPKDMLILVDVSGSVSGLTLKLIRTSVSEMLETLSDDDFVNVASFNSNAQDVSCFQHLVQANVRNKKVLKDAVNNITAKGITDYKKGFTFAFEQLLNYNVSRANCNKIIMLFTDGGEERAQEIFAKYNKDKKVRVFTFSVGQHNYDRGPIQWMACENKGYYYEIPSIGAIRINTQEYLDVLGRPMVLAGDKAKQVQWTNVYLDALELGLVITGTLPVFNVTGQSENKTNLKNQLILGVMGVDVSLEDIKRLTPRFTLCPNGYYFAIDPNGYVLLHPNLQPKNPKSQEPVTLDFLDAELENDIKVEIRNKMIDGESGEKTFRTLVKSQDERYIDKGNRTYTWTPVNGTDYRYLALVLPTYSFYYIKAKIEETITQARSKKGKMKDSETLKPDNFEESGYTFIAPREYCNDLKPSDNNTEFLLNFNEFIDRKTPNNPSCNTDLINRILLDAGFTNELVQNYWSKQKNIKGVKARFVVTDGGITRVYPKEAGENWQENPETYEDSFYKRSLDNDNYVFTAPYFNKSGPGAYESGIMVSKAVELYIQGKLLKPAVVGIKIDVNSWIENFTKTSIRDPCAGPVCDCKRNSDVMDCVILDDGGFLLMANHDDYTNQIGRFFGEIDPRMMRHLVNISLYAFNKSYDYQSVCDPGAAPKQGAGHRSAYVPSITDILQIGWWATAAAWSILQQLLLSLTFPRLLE
T1 sequence (P54290 945-1091 partner limits assumed, other chains not shown): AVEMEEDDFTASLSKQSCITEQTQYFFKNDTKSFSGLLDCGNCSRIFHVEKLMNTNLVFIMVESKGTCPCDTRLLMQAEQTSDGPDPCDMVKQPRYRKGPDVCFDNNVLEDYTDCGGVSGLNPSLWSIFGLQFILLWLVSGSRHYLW

In turn, `CCNC(=O)C1=C(CC)NC(CC)=C(C(=O)NCCCN2CCC(c3ccccc3)(c3ccccc3)CC2)C1c1ccc([N+](=O)[O-])cc1` (stereo not drawn) [Example 129, 2,6-Diethyl-5-(N-ethyl)carboxamido-1,4-dihydro-4-(4-nitrophenyl)-3-{N-[3-(4,4-diphenylpiperidin-1-yl)propyl]}carboxamidopyridine] yielded a melting point of 101 to 104 °C. In addition, in data set [1] ([3H]nitrendipine, rat cardiac muscle membrane fragments, L-type calcium channel, read-out: pKi Ca (converted)), the Ki is 100000 nM. The same compound showed a Ki in data set [2] (pKi alpha-1 1a, [3H]prazosin, cloned human α1A receptor, LM(tk−) cell membranes) of 676 nM. In data set [3] (pKi alpha-1 1c, cloned human α1C receptor, LM(tk−) cell membranes), the Ki was 3.72 nM. The Ki in data set [4] (pKi alpha-1 1b, cloned human α1B receptor, LM(tk−) cell membranes) is 513 nM.
With `CCC1=C(C(=O)OCCC#N)C(c2ccc([N+](=O)[O-])cc2)C(C(=O)NCCCN2CCC(C#N)(c3ccccc3)CC2)=C(COC)N1` (stereo not drawn) [Example 220, 5-(2-Cyanoethoxy)carbonyl-3-(N-(3-(4-cyano-4-phenylpiperidin-1-yl)propyl))carboxamido-6-ethyl-1,4-dihydro-2-methyloxymethyl-4-(4-nitro)phenylpyridine], the melting point lay in the range of 58 to 68 °C. In data set [1] (setting [5]), the Ki was 437000 nM. Also, the Ki in data set [2] (setting [6]) was 2140 nM. In data set [3] (setting [7]), the Ki is 9.77 nM. The compound further gave a Ki in data set [4] (setting [8]) of 525 nM.
In turn, `CNC(=O)C1=C(C)NC(C)=C(C(=O)NCCCN2CCC(C(=O)OC)(c3ccccc3)CC2)C1c1ccc([N+](=O)[O-])cc1` (stereo not drawn) [Example 187, 1,4-Dihydro-2,6-dimethyl-3-{N-[3-(4-methoxycarbonyl-4-phenylpiperidin-1-yl)propyl]}carboxamido-5-(N-methyl) carboxamido-4-(4nitrophenyl)pyridine] had a melting point of 122 to 123 °C. Also, the Ki in data set [1] (PKi Ca, [3H]nitrendipine, rat cardiac muscle membranes, mean) is 513000 nM.
As for `COC(=O)C1=C(C)NC(C)=C(C(=O)OCCCN(C)C)C1c1ccc([N+](=O)[O-])cc1.Cl` (stereo not drawn) [Example 44, 1,4-Dihydro-5-methoxycarbonyl-2,6-dimethyl-3-{3-[(N,N-dimethyl)amino]propoxy}carbonyl-4-(4-nitrophenyl) pyridine hydrochloride], the melting point was 120 to 121 °C. Besides, the Ki in data set [1] ([3H]nitrendipine, rat cardiac muscle membranes, SEM and n in lines below, read-out: pKi Ca (converted)) was 16600 nM. In addition, in data set [2] ([3H]prazosin, cloned human receptor in LM(tk-) cell membranes, SEM and n in lines below, read-out: pKi alpha-1 1a (converted)), the Ki is 5890 nM. In data set [3] (cloned human receptor in LM(tk-) cell membranes, SEM and n in lines below, read-out: pKi alpha-1 1c (converted)), the Ki is 1700 nM. For the same compound, the Ki in data set [4] (cloned human receptor in LM(tk-) cell membranes, SEM and n in lines below, read-out: pKi alpha-1 1b (converted)) is 8320 nM.
Compound `CCCC1=C(C(=O)NCC)C(c2ccc([N+](=O)[O-])cc2)C(C(=O)NCCCN2CCC(c3ccccc3)(c3ccccc3)CC2)=C(CCC)N1` (stereo not drawn) [Example 159, 5-(N-Ethyl)carboxamido-1,4-dihydro-4-(4-nitrophenyl)-3-{N-[3-(4,4-diphenylpiperidin-1-yl)propyl]}carboxamido-2,6-dipropylpyridine] showed a melting point of 123 to 128 °C. Also, in data set [1] (pKi Ca), the Ki was 1660 nM. This compound also had a Ki in data set [2] (pKi alpha-1 1a) of 389 nM. Moreover, the Ki in data set [3] (cloned human α1C receptor, LM(tk−) cell membranes, read-out: pKi alpha-1 1c (converted)) was 5.01 nM. Moreover, the Ki in data set [4] (cloned human α1B receptor, LM(tk−) cell membranes, read-out: pKi alpha-1 1b (converted)) was 178 nM.
The compound `CCC1=C(C(=O)OC)C(c2ccc([N+](=O)[O-])cc2)C(C(=O)NCCCN2CCC(C(=O)OC)(c3ccccc3)CC2)=C(COCCN=[N+]=[N-])N1` (stereo not drawn) [Example 232, 2-((2-Azidoethyl)oxy)methyl-6-ethyl-5-methoxycarbonyl-3-(N-(3 (4-methoxycarbonyl-4-phenylpiperidin-1-yl)propyl))carbo xamido-1,4-dihydro-4-(4-nitro)phenylpyridine] came in with a melting point of 50 to 60 °C. In addition, the Ki in data set [1] (PKi Ca) was 692 nM. The Ki in data set [2] (PKi alpha-1 1a) was 417 nM. For the same compound, in data set [3] (setting [9]), the Ki was 7.59 nM. Moreover, the Ki in data set [4] (setting [10]) is 219 nM.
Turning to `CC1=C(C(N)=O)C(c2ccc([N+](=O)[O-])cc2)C(C(=O)NCCCN2CCC(c3ccccc3)CC2)=C(COCCN=[N+]=[N-])N1` (stereo not drawn) [Example 216, 2-((Azidoethyl)oxy)methyl-5-carboxamido-1,4-dihydro-6-methyl-4-(4-nitro)phenyl-3-(N-(3-(4-phenylpiperidin-1-yl)propyl))carboxamidopyridine], the Ki was 1000 nM in data set [1] (setting [5]); 60.3 nM in data set [2] ([3H]prazosin, cloned human receptor, LM(tk-) cell membranes, mean, read-out: PKi alpha-1 1a (converted)); 1.7 nM in data set [3] (setting [9]); 7.08 nM in data set [4] (setting [10]).
Regarding `CCC1=C(C(=O)NC)C(c2ccc([N+](=O)[O-])cc2)C(C(=O)NCCCN2CCC(c3ccccc3)(c3ccccc3)CC2)=C(COCCN=[N+]=[N-])N1` (stereo not drawn) [Example 224, 2-((2-Azidoethyl)oxy)methyl-6-ethyl-1,4-dihydro-5-N-methylcarboxamido-4-(4-nitro)phenyl-3-(N-(3-(4,4-diphenylpiperidin-1-yl)propyl))carboxamidopyridine], the Ki was 15100 nM in data set [1] (setting [5]), 661 nM in data set [2] (setting [6]), 6.92 nM in data set [3] (setting [7]) and 263 nM in data set [4] (setting [8]).
For `CC1=C(C(N)=O)C(c2ccc([N+](=O)[O-])cc2)C(C(=O)NCCCN2CCC(c3ccccc3)(c3ccccc3)CC2)=C(COCCN)N1` (stereo not drawn) [Example 217, 2-((2-Aminoethyl)oxy)methyl-5-carboxamido-1,4-dihydro-6-methyl-3-(N-(3-(4,4-diphenylpiperidin-1-yl)propyl))carboxamido-4-(4-nitro)phenylpyridine], the Ki in data set [1] (PKi Ca) was 8130 nM; in data set [2] (PKi alpha-1 1a) it was 776 nM; in data set [3] (setting [9]) it was 2.45 nM; in data set [4] (setting [10]), 447 nM.
